The values below come from patent US10000771B2, “Nuclear targeting sequences” (Yeda Research and Development Co. Ltd., priority 2007, dated 2018).

The target in one experiment is T1, importin-7 (Homo sapiens, UniProt O95373).
T1 construct: endogenous in cells; host or cells: HeLa
Description: Coimmunoprecipitation with importin-7. It is filed as binding. The settings on record: HeLa cells, coimmunoprecipitation, without EGF stimulation. The procedure:
FIGS. 19A-19C are autoradiographs illustrating that phospho-SPS interacts with importin-7 and releases Nup153c binding without involvment of importin-β. […]. Interaction of ERK2 with Importin-7 is enhanced by EGF stimulation and EPE mutation. HeLa cells overexpressing WT-ERK (WT), ERK-APA (APA), ERK-EPE (EPE) or GFP were serum starved and treated with EGF (50 ng/ml, 10 min). The extracts of the treated cells were then subjected to coimmunoprecipitation using A/G beads pre-conjugated with anti GFP Ab and mild washes. The coimmunoprecipitated importin-7 (first panel) and importin-β (third panel), as well as their loading amounts (panels 2 and 4 respectively) were determined by WB using anti importin-7 (αImp7) and importin-β (αImpβ) Abs. The equal amount of immunoprecipitated ERKs was determined with anti GFP (αGFP; IP) Ab. FIG. 19B. Interaction of 2GFP-SPS and its mutants with importin-7. HeLa cells overexpressing 2GFP, 2GFP-SPS, 2GFP-APA and 2GFP-EPE constructs were subjected to coimmunoprecipitation as described in FIG. 19A (without EGF stimulation). FIG. 19C. Interaction of NUP153 with WTERK2 and its APA and EPE mutants. NUP153c is elevated in APA-ERK2, but reduced in EPE-ERK2. Immunoprecipitated and stringently washed WT-ERK2 (WT), APA-ERK2 (APA) or ERK2 from […] cells pre-treated with or without TPA (250 nM, 15 min) were incubated with 0.5 μg recombinant His-Nup153c. This was followed by mild washing, and the beads were then subjected to Western blot analysis using anti His (αHis) and anti αGFP Abs.
Immunoprecipitation. Cellular extracts of stimulated transfected cells, were incubated with anti-GFP antibody preconugated to A/G beads (Santa Cruz; (2 hr, 4° C.). Subsequently, the beads were washed twice with HNTG buffer and once with 0.5 M LiCl. The immunoprecipitates were subjected either to Western blotting as described above or to an in vitro phosphatase assay as described under Results.

Another experiment concerns COS7 cells. Description: Subcellular fractionation of 2GFP chimeras. Type of experiment: cell-based. The procedure: FIG. 9A is an autoradiograph illustrating the subcellular fractionation of transfected SPS, APA, and EPE peptides fused to a 2GFP in COS7 cells. Western blot analysis of aliquots of the fractions were stained with anti GFP Ab to detect the different chimaras, and with anti tubulin and anti c-Jun Abs as markers for the cytoplasmic and nuclear fractions respectively.
Cellular Fractionation: Transfected COS7 cells were starved (0.1% FBS) for 16 h, after which they were washed with ice-cold PBS, suspended in ice-cold buffer H, and centrifuged (12,000×g, 5 min). Then, the nuclear and cytosolic fractions were isolated as described [H. Rubinfeld, T. Hanoch, R. Seger, J. Biol. Chem. 274, 30349 (1999)]. Briefly, the pellets were suspended in 0.1% NP-40 followed by centrifugation (12,000×g, 5 min). The supernatant, containing the cytosolic fraction, was boiled in sample buffer. The pellet was suspended in extraction buffer (420 mM Nacl, 50 mM β-glycerophosphate, 0.5 mM Na3VO4, 1.5 mM MgCl2, 0.2 mM EDTA, 1 mM DTT, 25% glycerol), incubate on ice for 10 min, sonicated (50 W, 2×7 sec), and centrifuged (12,000×g, 5 min). The supernatant, containing the nuclear fraction, was subjected to Western blot.

Experiment [1] deals with CHO cells. Description: Fluorescence microscopy of 2GFP chimeras (subcellular localization). Type of experiment: cell-based. The conditions noted are these: 24 hr post transfection, serum-starved. The procedure: FIGS. 8A-8H are photomicrographs illustrating that SPS, APA, and EPE peptides fused to a 2GFP chimera modify its subcellular localization. CHO cells were grown on cover slips and transfected with 19 amino acid from the kinase insert domain of ERK2 including the SPS region (GFP-SPS) fused to a 2GFP chimera and with the same chimeras with substitution of the Ser to Ala (GFP-APA) or substitution to Glu (GFP-EPE). Twenty-four hr later, the cells were serum-starved for 16 hr, fixed, stained with DAPI and visualized by a fluorescence microscope.
(§1) Immunofluorescence Microscopy. Cells were fixed (30 min in 3% paraformaldehyde in PBS or 10 min with ice-cold methanol), followed by 5-min permeabilization with 0.2% Triton X-100 in PBS (23° C.). The fixed cells were sequentially incubated with the appropriate Abs (45 min) followed by rhodamine-conjugated secondary Abs (45 min) and DAPI. Slides were visualized using a fluorescence microscope (Nikon, Japan) at 400× magnifications.
To validate the general importance of the SPS domain, a 19 amino acid sequence surroundings the SPS or the APA and EPE mutants was fused to a dimer of GFP proteins (2GFP). Cellular distribution of the chimeras was detected in CHO cells 24 hr post transfection of the GFP constructs.

A further experiment relates to SPS domain. The experiment can be described thus: SPS phosphorylation detected by anti pSPS Ab Western blot. Type of experiment: cell-based. The settings on record: cells pretreated (15 min) prior to EGF 50 ng/ml stimulation. The procedure: FIGS. 4A-4I are autoradiographs characterizing SPS phosphorylation using an Ab to the phosphorylated SPS domain. FIG. 4A illustrates an elevation of pSPS detection upon stimulation. COS cells were transfected with WT-GFP-ERK2. Twenty-four hr after transfection, the cells were serum-starved for 16 hr and subsequently treated with the general stimulator VOOH (V, 100 μM Na3VO4 and 200 μM H2O2, 15 min), TPA (T, 250 nM, 15 min), EGF (E, 50 ng/ml for 15 min), or left untreated (NT). The GFP-ERK2 was immunoprecipitated with anti GFP Ab, extensively washed, and the IP was then subjected to Western blotting with anti phospho SPS-ERK (αphoSPS-ERK) and anti general ERK (αgen-ERK) Abs. FIG. 4B is a time course of SPS phosphorylation. COS7 cells overexpressing WT-GFP-ERK2 were serum starved followed by EGF stimulation for the indicated time points. The lysates were then subjected to Western blot analysis as in FIG. 4A. FIGS. 4C-D. GFP-ERK2 was immunoprecipitated from VOOH stimulated (Act) or non-stimulated (NT), transfected COS7 cells as above. The immunoprecipitated protein was then incubated with shrimp's alkaline phosphates (SAP, 15 units, 30 min, 30° C. in the manufacturer digestion buffer), and subjected to Western blot analysis with anti phosphoSPS-ERK (αpSPS; FIG. 4C), anti phosphoTEY-ERK (αpTEY; FIG. 4D), and anti general-ERK Ab (αgen-ERK; FIGS. 4C, D). FIG. 4E. Elevation of anti pSPS Ab immunoreactivity upon stimulation of endogenous ERKs. Following serum starvation COS7 cells were treated with EGF (50 ng/ml) or VOOH (V, 100 μM Na3VO4 and 200 μM H2O2) for the indicated times. SPS phosphorylation was detected using the anti pSPS Abs, and this was compared to the amount of genral ERKs detected by αgERK. FIG. 4F. Specificity of the anti pSPS Ab. COS7 cells overexpressing either GFP-ERK2 or 244-6A mutant were serum starved for 16 hr, and then treated with EGF (50 ng/ml) for 15 min following WB analysis using αpSPS and αgERK Abs. FIG. 4G. TEY phosphorylation is not required for SPS phosphorylation. COS7 cells overexpressing WT-ERK2 or TEY-AAA were treated as described in D. FIG. 4H. COS7 cells were treated with or without UO126 prior (15 min) to EGF (50 ng/ml) stimulation for the indicated times. SPS-phosphorylation was detected using αpSPS and αgERK Abs. FIG. 4I. Phosphorylation of SPS is mediated by ERK autophosphorylation. […] The phosphorylation (^32P-ERK2) of ERK and its mutants was detected by autoradiography. […]
FIG. 9B is an autoradiograph illustrating that stimulation elevates pSPS phosphorylation of 2GFP-SPS construct. […] The total amount of immunoprecipitated 2GFP-SPS was detected with αGFP Ab. […]

In experiment [2] the test system is CHO cells. Description: Microscopy of MEK1-GFP constructs (subcellular localization). Type of experiment: cell-based. The procedure: FIGS. 14A-14R are photomicrographs illustrating that the NTS motif regulates MEK1 shuttling into the nucleus. CHO cells overexpressing WT-GFP-MEK1 (WT), AAA-GFP-MEK1 (AAA-MEK) and EPE-GFP-MEK1 (EPE-MEK) were starved for 16 hr and treated with LMB (5 ng/ml, 1 hr; LMB), LMB (5 ng/ml, 1 hr)+TPA (250 nM, 15 min; LMB+TPA) or left un treated (NT). Subsequently the cells were fixed, stained with DAPI and visualized by a fluorescent microscope.
as §1
Other proteins that translocate into the nucleus upon stimulation are the MEKs [H. Jaaro, H. Rubinfeld, T. Hanoch, R. Seger, Proc. Natl. Acad. Sci. USA 94, 3742 (1997)]. […] This TPT sequence was also shown to be phosphorylated upon cellular stimulation [S. Matsuda, Y. Gotoh, E. Nishida, J Biol Chem 268, 3277 (Feb. 15, 1993)], and to be involved in protein-protein interaction that can determine subcellular localization [A. Nantel, K. Mohammad-Ali, J. Sherk, B. I. Posner, D. Y. Thomas, J Biol Chem 273, 10475 (Apr. 24, 1998). […]

The subject of another experiment is endogenous ERKs. Description: Effect of 2GFP chimeras on nuclear translocation of endogenous ERKs. The conditions noted are these: CHO cells overexpressing the chimera, TPA 250 nM, 15 min. Type of experiment: cell-based. The procedure: FIGS. 10A-10X illustrate the effects of the 2GFP chimeras on the nuclear translocation of endogenous ERKs. CHO cells overexpressing 2GFP, 2GFP-SPS, 2GFP-APA and 2GFP-EPE were serum starved and treated with or without TPA (250 nM, 15 min). Subsequently, the cells were fixed and stain with anti-ERK2 (C-14) Ab and with DAPI.
as §1

Ends that are not written are not given here.

T1 sequence (O95373 whole entry): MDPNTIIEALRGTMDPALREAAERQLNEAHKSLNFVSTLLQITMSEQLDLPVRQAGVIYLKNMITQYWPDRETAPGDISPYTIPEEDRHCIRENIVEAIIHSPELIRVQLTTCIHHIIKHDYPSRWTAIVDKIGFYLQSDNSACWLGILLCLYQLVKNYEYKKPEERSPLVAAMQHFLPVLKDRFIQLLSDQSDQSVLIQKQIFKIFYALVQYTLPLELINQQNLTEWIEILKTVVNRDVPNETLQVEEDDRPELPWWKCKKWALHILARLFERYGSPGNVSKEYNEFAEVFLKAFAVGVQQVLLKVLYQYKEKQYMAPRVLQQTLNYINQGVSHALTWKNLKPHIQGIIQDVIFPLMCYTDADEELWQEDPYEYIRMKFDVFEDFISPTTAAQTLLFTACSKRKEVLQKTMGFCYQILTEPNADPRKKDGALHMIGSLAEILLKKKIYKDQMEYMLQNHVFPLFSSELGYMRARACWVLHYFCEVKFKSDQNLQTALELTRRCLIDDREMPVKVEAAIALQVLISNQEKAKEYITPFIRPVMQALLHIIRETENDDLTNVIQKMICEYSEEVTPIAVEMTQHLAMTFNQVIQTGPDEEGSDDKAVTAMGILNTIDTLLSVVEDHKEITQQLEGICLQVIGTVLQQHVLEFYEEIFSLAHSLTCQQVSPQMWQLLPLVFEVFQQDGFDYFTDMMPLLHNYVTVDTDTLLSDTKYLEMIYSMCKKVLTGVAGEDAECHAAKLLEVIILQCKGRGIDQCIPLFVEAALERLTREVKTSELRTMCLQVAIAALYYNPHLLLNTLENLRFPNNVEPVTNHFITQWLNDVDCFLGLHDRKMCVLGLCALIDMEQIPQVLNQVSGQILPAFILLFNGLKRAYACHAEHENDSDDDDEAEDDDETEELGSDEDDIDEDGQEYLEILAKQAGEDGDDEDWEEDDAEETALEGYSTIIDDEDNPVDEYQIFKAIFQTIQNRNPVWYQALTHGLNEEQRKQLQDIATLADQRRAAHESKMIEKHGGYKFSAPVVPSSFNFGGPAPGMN

In the case of “2GFP-EPE: 2GFP-WT with the Ser residues in the SPS domain mutated to Glu (LDQLNHILGILGEPEQEDL; also: fused to 2GFP (large carrier))”, in the experiment with importin-7, the “interaction of 2GFP constructs with importin-7” value is given as “elevated it”. In the experiment with COS7 cells, the “localized in the nucleus” value came out at 90%. In addition, the cellular distribution result in the experiment on CHO cells [1] is “mainly in the nucleus”.

For `N#CC(=C(/N)Sc1ccccc1N)/C(C#N)=C(\N)Sc1ccccc1N` [U0126, reference compound], in the experiment on SPS domain, the “anti pSPS Ab reaction with GFP-ERK2 after inhibitor pretreatment” value is “did not react”.

Take “EPE-MEK1: GFP-MEK1 with residues 386 and 388 replaced with Glu”: the “nuclear accumulation after TPA stimulation” value with CHO cells [2] (LMB 5 ng/ml + TPA 250 nM, 15 min) is recorded as “localized in the nucleus even without stimulation”. The “nuclear translocation after leptomycin B” value in the experiment on CHO cells [2] (LMB 5 ng/ml, 1 hr) is “increased”.

For “2GFP-APA: 2GFP-WT with the Ser residues in the SPS domain mutated to Ala (LDQLNHILGILGAPAQEDL; also: fused to 2GFP (large carrier))”, the “interaction of 2GFP constructs with importin-7” value with importin-7 is recorded as “reduced this interaction”. In the experiment on COS7 cells, the “localized in the nucleus” value turned out to be 3%. Also, the cellular distribution entry in the experiment with CHO cells [1] was “mainly in the cytoplasm and perinuclear region”. Also, in the experiment with endogenous ERKs, the “inhibition of TPA-induced translocation of endogenous ERKs” value is “more so”.
